Measured values as given in ChEMBL document CHEMBL3044614, “Synthesis and pharmacological evaluation of m-terphenyl amines as cyclooxygenase inhibitors” (Med Chem Res, 2007).
Calls of active or inactive are those of the source. The rule behind the calls is not given here.

How the values were obtained:
[1] = molecular target: T1, Prostaglandin G/H synthase 2 (Homo sapiens) (UniProt P35354); assay: Inhibition of cyclooxygenase-2 in Homo sapiens (human) whole blood assessed as LPS-induced PGE2 production at 100 uM incubated 15 min prior to LPS challenge measured after 24 hr by enzyme immunoassay
T1 sequence (whole entry): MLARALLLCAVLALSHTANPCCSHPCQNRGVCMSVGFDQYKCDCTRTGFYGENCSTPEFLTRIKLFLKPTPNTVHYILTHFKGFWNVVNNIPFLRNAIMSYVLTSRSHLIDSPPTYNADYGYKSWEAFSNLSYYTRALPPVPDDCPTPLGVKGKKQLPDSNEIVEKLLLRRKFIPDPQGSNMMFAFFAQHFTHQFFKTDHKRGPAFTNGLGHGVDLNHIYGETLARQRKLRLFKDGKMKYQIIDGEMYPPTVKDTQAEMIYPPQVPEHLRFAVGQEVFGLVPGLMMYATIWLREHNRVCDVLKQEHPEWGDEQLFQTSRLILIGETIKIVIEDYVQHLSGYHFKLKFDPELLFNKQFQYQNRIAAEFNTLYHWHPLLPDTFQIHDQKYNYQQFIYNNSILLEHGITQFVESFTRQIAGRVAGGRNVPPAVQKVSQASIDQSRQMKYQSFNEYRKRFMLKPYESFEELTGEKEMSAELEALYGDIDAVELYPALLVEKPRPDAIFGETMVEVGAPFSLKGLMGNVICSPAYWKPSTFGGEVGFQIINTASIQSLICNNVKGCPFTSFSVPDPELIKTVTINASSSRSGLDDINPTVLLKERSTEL

[2] = molecular target: T1, Prostaglandin G/H synthase 2 (Homo sapiens); assay: Inhibition of cyclooxygenase-2 in Homo sapiens (human) whole blood assessed as LPS-induced PGE2 production at 10 uM incubated 15 min prior to LPS challenge measured after 24 hr by enzyme immunoassay
[3] = molecular target: T2, Prostaglandin G/H synthase 1 (Homo sapiens, UniProt P23219); assay: Inhibition of cyclooxygenase-1 in Homo sapiens (human) whole blood assessed as thromboxane B2 production at 100 uM after 1 hr by enzyme immunoassay
T2 sequence (P23219 whole entry): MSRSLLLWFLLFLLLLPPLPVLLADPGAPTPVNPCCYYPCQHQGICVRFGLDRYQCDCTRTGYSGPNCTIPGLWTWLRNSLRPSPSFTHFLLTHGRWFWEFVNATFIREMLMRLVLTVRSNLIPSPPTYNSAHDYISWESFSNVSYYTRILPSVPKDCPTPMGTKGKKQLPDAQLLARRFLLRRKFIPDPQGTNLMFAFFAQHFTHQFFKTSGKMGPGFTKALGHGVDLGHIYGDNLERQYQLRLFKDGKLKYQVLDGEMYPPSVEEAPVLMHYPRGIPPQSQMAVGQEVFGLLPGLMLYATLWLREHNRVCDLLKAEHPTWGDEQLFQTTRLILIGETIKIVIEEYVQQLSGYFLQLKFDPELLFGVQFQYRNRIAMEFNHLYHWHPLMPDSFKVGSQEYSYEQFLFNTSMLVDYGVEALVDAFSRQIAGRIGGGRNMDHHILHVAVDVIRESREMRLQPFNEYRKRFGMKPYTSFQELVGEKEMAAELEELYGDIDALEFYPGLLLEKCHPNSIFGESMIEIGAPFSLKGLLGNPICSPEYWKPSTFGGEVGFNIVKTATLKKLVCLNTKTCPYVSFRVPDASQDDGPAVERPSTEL

[4] = molecular target: T2, Prostaglandin G/H synthase 1; assay: Inhibition of cyclooxygenase-1 in Homo sapiens (human) whole blood assessed as thromboxane B2 production at 10 uM after 1 hr by enzyme immunoassay
[5] = molecular target: T3, Prostaglandin G/H synthase 2 (Homo sapiens, UniProt P35354); assay: Inhibition of Homo sapiens (human) cyclooxygenase-2
T3 sequence (P35354 whole entry): T1 sequence (whole entry)

[6] = molecular target: T2, Prostaglandin G/H synthase 1; assay: Inhibition of COX-1 (unknown origin)

Molecule `Cc1ccc(-c2cc(N)cc(-c3ccc(C)cc3)c2)cc1` has an inhibition [1] of 86%, an inhibition [2] of 57% and an inhibition [3] of 87%. For the same molecule, the inhibition [4] was 27%.
`Nc1cc(-c2ccc(Cl)cc2)cc(-c2ccc(Cl)cc2)c1` gave an inhibition [1] of 99%, an inhibition [2] of 76% and an inhibition [3] of 93%. The inhibition [4] was 19%.
For `CS(=O)(=O)c1ccc(-c2cc(N)cc(-c3ccccc3)c2)cc1`, the inhibition [1] was “inactive”, the inhibition [2] was “inactive” and the inhibition [3] was 85%. It also gave an inhibition [4] of 23%.
For `CCOc1ccc(-c2cc(N)cc(-c3ccccc3)c2)cc1`, the inhibition [1] was “inactive”, the inhibition [2] was “inactive” and the inhibition [3] was 88%. For the same molecule, the inhibition [4] was 20%.
With `Cc1c(CC(=O)O)cc(-c2ccccc2)cc1-c1ccccc1` the IC50 [5] was 120 µM and the IC50 [6] was 17 µM.
`Cc1ccc(-c2cc(N)cc(-c3ccccc3)c2)cc1` gave an inhibition [1] of 95%, an inhibition [2] of 49% and an inhibition [3] of 96%. For the same molecule, the inhibition [4] was 46%.
In the case of `Nc1cc(-c2ccccc2)cc(-c2ccccc2)c1`, the inhibition [1] is reported as 92%, the inhibition [2] is reported as 68% and the inhibition [3] is reported as 98%. The inhibition [4] was 56%.
With `COc1ccc(-c2cc(N)cc(-c3ccccc3)c2)cc1` the inhibition [1] was 78%, the inhibition [2] was “inactive” and the inhibition [3] was 92%. For the same molecule, the inhibition [4] was “inactive”.
In the case of `CCOc1ccc(-c2cc(N)cc(-c3ccc(OCC)cc3)c2)cc1`, the inhibition [1] is reported as “inactive”, the inhibition [2] is reported as “inactive” and the inhibition [3] is reported as “inactive”. For the same molecule, the inhibition [4] was “inactive”.
With `CSc1ccc(-c2cc(N)cc(-c3ccccc3)c2)cc1` the inhibition [1] was “inactive”, the inhibition [2] was “inactive” and the inhibition [3] was 92%. It also gave an inhibition [4] of 29%.
`Nc1cc(-c2ccccc2)cc(-c2ccc(Cl)cc2)c1` gave an inhibition [1] of 98%, an inhibition [2] of 85% and an inhibition [3] of 97%. For the same molecule, the inhibition [4] was 63%.
